This passage reports IC50 and Ki results from ChEMBL document CHEMBL1909046, “DrugMatrix in vitro pharmacology data”.

As usually defined, the IC50 is the point on the concentration scale where inhibition reaches its midpoint. For orientation: Ki means the equilibrium dissociation constant of an inhibitor or competing ligand from its target.

Each structure is given as a SMILES string.

Sigma non-opioid intracellular receptor 1, sequence (Q99720 whole entry): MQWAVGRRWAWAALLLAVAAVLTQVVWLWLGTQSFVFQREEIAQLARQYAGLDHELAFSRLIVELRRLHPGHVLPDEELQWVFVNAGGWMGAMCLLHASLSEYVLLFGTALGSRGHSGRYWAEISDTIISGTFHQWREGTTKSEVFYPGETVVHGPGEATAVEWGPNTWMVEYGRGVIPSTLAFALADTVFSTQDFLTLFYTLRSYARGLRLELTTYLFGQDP
Epidermal growth factor receptor, sequence (P00533 whole entry): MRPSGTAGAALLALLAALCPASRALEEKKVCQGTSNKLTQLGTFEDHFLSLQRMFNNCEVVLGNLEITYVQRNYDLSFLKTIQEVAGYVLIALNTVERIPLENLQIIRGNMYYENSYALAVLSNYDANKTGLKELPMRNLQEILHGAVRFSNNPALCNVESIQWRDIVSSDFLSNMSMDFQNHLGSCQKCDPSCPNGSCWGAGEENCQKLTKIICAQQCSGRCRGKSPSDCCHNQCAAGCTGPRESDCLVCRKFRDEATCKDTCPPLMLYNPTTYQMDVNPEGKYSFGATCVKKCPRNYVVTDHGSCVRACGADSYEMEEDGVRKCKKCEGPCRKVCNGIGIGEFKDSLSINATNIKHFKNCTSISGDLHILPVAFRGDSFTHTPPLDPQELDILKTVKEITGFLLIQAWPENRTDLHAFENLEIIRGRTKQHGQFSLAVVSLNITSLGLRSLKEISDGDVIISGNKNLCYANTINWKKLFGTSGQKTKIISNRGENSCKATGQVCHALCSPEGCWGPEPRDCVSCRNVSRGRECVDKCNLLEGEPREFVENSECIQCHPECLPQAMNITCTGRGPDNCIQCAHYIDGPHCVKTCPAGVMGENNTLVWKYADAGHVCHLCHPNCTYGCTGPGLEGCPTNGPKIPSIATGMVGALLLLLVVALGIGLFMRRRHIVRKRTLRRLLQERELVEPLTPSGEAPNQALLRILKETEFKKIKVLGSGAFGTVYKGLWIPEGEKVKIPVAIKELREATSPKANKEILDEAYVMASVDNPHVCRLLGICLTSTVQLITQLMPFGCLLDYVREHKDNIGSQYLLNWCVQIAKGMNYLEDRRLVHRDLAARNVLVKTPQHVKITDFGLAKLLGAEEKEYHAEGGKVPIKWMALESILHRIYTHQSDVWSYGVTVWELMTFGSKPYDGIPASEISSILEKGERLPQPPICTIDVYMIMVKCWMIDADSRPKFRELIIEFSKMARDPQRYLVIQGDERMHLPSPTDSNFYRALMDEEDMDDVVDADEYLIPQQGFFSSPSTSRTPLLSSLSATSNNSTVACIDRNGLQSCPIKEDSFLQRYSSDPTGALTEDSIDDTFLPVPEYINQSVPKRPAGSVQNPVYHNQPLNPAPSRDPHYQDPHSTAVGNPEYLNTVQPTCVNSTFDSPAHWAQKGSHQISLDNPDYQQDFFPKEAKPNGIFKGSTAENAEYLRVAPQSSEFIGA

Tested on in the first data set: not listed separately
As to the kind of experiment: DRUGMATRIX: Serotonin (5-Hydroxytryptamine) 5-HT3 radioligand binding (ligand: [3H] GR-65630). It counts as cell membranes, Membrane. Particulars: hek293; Not Active = under 50% inhibition at 10 µM.
As for `CCCCOc1ccc(OCCCN2CCOCC2)cc1` [PRAMOXINE], the IC50 result is reported as “Not Active” and the Ki entry is listed as “Not Active”.
Regarding `CCN(CC)CCOC(=O)c1ccc(N)cc1` [PROCAINE], the IC50 result is on record as “Not Active” and the Ki entry is “Not Active”.
As to `CCCN(CCC)C(=O)C(CCC(=O)O)NC(=O)c1ccccc1` (stereo unspecified) [PROGLUMIDE], the IC50 result is given as “Not Active” and the Ki result was “Not Active”.
As for `NC(=O)c1cnccn1` [PYRAZINAMIDE], the IC50 entry is “Not Active” and the inhibitory constant (Ki) result is “Not Active”.
With `OC(CCN1CCCCC1)(c1ccccc1)C1CCCCC1` (stereo unspecified) [TRIHEXYPHENIDYL], the IC50 entry is listed as “Not Active” and the Ki result was “Not Active”.
Regarding `Cc1cc2cc3c(C)cc(=O)oc3c(C)c2o1` [TRIOXSALEN], the IC50 result is recorded as “Not Active” and the Ki entry is “Not Active”.
On to `CCCC(CCC)C(=O)O` [VALPROIC ACID], for which the IC50 entry was “Not Active” and the Ki entry is “Not Active”.

Still in this data set, the particulars now being: hek293; Not Active = under 50% inhibition at 10 µM; read-out: IC50.
Take `Cc1nccn1CC1CCc2c(c3ccccc3n2C)C1=O` (stereo unspecified) [ONDANSETRON]: the IC50 came out at 0.00929 µM.

The data set is the same for the next values; noted with them: hek293; Not Active = under 50% inhibition at 10 µM; read-out: Ki.
In the case of `Cc1nccn1CC1CCc2c(c3ccccc3n2C)C1=O` (stereo unspecified) [ONDANSETRON], the Ki was found to be 0.00209 µM.

Another data set has as its target Sigma non-opioid intracellular receptor 1 (Homo sapiens, UniProt Q99720). As to the kind of experiment: DRUGMATRIX: Sigma1 radioligand binding (ligand: [3H] Haloperidol). It counts as cell membranes, Jurkat, Membrane. Particulars: Not Active = under 50% inhibition at 10 µM; read-out: IC50.
With `CCCCOc1ccc(OCCCN2CCOCC2)cc1` [PRAMOXINE], the IC50 was determined as 0.121 µM.
The same measure, in the same setting: then `OC(CCN1CCCCC1)(c1ccccc1)C1CCCCC1` (stereo unspecified) [TRIHEXYPHENIDYL], with 0.108 µM.

The data set is the same for the next values; noted with them: Not Active = under 50% inhibition at 10 µM; read-out: Ki.
With `CCCCOc1ccc(OCCCN2CCOCC2)cc1` [PRAMOXINE], the Ki was found to be 0.051 µM.
On the same count and under the same terms, then `OC(CCN1CCCCC1)(c1ccccc1)C1CCCCC1` (stereo unspecified) [TRIHEXYPHENIDYL], with 0.045 µM.

Staying with this data set, now noted: jurkat; Not Active = under 50% inhibition at 10 µM.
For the molecule `Cc1nccn1CC1CCc2c(c3ccccc3n2C)C1=O` (stereo unspecified) [ONDANSETRON], the IC50 entry is “Not Active”.
The same measure, in the same setting: then `CCN(CC)CCOC(=O)c1ccc(N)cc1` [PROCAINE], with “Not Active”; and `CCCN(CCC)C(=O)C(CCC(=O)O)NC(=O)c1ccccc1` (stereo unspecified) [PROGLUMIDE], with “Not Active”.
Same read-out and setting: then `NC(=O)c1cnccn1` [PYRAZINAMIDE], with “Not Active”.
The same measure, in the same setting: the entry for `Cc1cc2cc3c(C)cc(=O)oc3c(C)c2o1` [TRIOXSALEN] is “Not Active”; for `CCCC(CCC)C(=O)O` [VALPROIC ACID] it is “Not Active”.

The next data set deals with Vascular endothelial growth factor receptor 1 (Homo sapiens, UniProt P17948). It counts as cell-based. Particulars: huvec.
Vascular endothelial growth factor receptor 1, sequence (P17948 whole entry): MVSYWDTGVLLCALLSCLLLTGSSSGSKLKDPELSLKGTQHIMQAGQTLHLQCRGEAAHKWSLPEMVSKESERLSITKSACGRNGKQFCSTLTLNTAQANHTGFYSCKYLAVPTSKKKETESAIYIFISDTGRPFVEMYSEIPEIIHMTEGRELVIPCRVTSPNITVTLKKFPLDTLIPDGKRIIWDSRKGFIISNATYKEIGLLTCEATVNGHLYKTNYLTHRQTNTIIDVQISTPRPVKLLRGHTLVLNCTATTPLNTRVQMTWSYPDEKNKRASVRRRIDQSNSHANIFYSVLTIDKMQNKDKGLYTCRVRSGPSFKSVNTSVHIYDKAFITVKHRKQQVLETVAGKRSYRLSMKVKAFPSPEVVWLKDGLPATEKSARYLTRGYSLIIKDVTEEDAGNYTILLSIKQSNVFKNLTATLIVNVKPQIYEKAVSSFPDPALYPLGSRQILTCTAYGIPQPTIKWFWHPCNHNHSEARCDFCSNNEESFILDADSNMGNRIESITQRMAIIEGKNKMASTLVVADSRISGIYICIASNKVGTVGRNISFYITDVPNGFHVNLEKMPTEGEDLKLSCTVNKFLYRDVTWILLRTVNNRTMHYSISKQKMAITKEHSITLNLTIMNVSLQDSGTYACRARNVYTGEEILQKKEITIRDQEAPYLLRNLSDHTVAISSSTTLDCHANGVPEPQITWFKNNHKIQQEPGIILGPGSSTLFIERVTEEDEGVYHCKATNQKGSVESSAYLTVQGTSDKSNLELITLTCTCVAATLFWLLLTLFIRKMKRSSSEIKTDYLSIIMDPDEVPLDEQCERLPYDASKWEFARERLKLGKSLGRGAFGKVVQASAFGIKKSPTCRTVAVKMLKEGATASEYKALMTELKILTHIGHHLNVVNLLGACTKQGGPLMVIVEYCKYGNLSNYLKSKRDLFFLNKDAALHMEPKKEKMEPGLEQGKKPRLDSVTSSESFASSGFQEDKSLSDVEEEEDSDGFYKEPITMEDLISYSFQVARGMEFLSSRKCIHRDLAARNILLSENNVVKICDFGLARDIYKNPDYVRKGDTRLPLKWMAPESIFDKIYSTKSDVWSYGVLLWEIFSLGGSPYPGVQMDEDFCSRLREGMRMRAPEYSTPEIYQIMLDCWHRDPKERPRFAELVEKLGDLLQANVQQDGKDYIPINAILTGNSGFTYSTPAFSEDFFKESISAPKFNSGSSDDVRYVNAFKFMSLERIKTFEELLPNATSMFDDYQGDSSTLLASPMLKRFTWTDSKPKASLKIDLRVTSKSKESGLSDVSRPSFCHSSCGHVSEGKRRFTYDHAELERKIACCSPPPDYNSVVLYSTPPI
With `Cc1nccn1CC1CCc2c(c3ccccc3n2C)C1=O` (stereo unspecified) [ONDANSETRON], the IC50 result is given as “Not Active”.
With `CCCCOc1ccc(OCCCN2CCOCC2)cc1` [PRAMOXINE], the 50% inhibitory concentration (IC50) result is recorded as “Not Active”.
Turning to `CCN(CC)CCOC(=O)c1ccc(N)cc1` [PROCAINE], the IC50 entry is given as “Not Active”.
With `CCCN(CCC)C(=O)C(CCC(=O)O)NC(=O)c1ccccc1` (stereo unspecified) [PROGLUMIDE], the IC50 result is “Not Active”.
Still for that read-out and setting: the entry for `NC(=O)c1cnccn1` [PYRAZINAMIDE] is “Not Active”; for `OC(CCN1CCCCC1)(c1ccccc1)C1CCCCC1` (stereo unspecified) [TRIHEXYPHENIDYL] it is “Not Active”.
Same read-out and setting: then `Cc1cc2cc3c(C)cc(=O)oc3c(C)c2o1` [TRIOXSALEN], with “Not Active”.
In the case of `CCCC(CCC)C(=O)O` [VALPROIC ACID], the IC50 result is on record as “Not Active”.

The target of another data set is Mu-type opioid receptor (Homo sapiens, UniProt P35372). The data set can be described thus: DRUGMATRIX: Opiate mu (OP3, MOP) radioligand binding (ligand: [3H] Diprenorphine). It counts as cell membranes, CHO-K1, Membrane. Particulars: cho-k1; Not Active = under 50% inhibition at 10 µM.
Mu-type opioid receptor, sequence (P35372 whole entry): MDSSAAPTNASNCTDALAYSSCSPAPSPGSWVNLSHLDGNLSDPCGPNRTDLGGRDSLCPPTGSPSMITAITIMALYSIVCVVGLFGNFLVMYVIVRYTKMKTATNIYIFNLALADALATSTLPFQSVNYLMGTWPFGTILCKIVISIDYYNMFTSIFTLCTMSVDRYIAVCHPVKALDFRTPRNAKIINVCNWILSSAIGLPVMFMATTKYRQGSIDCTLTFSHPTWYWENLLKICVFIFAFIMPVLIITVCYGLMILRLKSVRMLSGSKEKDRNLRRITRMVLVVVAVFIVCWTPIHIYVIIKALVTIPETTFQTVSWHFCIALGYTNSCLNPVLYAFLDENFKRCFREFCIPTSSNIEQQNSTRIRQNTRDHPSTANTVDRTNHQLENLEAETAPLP
On to `Cc1nccn1CC1CCc2c(c3ccccc3n2C)C1=O` (stereo unspecified) [ONDANSETRON], for which the IC50 entry is “Not Active”.
On the same count and under the same terms, the entry for `CCCCOc1ccc(OCCCN2CCOCC2)cc1` [PRAMOXINE] is “Not Active”; for `CCN(CC)CCOC(=O)c1ccc(N)cc1` [PROCAINE] it is “Not Active”.
For `CCCN(CCC)C(=O)C(CCC(=O)O)NC(=O)c1ccccc1` (stereo unspecified) [PROGLUMIDE], the IC50 entry is “Not Active”.
For the molecule `NC(=O)c1cnccn1` [PYRAZINAMIDE], the IC50 entry is reported as “Not Active”.
As to `OC(CCN1CCCCC1)(c1ccccc1)C1CCCCC1` (stereo unspecified) [TRIHEXYPHENIDYL], the IC50 result is “Not Active”.
The same measure, in the same setting: the entry for `Cc1cc2cc3c(C)cc(=O)oc3c(C)c2o1` [TRIOXSALEN] is “Not Active”.
Same read-out and setting: then `CCCC(CCC)C(=O)O` [VALPROIC ACID], with “Not Active”.

Another data set concerns the target Epidermal growth factor receptor (Homo sapiens, UniProt P00533). The data set can be described thus: DRUGMATRIX: Protein Tyrosine Kinase, EGF Receptor enzyme inhibition (substrate: Poly(Glu:Tyr)). It counts as cell-based, Insect cells. The note with it: insect cells; Not Active = under 50% inhibition at 10 µM.
Regarding `Cc1nccn1CC1CCc2c(c3ccccc3n2C)C1=O` (stereo unspecified) [ONDANSETRON], the IC50 result is on record as “Not Active”.
On the same count and under the same terms, the entry for `CCCCOc1ccc(OCCCN2CCOCC2)cc1` [PRAMOXINE] is “Not Active”.
Same read-out and setting: then `CCN(CC)CCOC(=O)c1ccc(N)cc1` [PROCAINE], with “Not Active”; and `CCCN(CCC)C(=O)C(CCC(=O)O)NC(=O)c1ccccc1` (stereo unspecified) [PROGLUMIDE], with “Not Active”.
Same read-out and setting: then `NC(=O)c1cnccn1` [PYRAZINAMIDE], with “Not Active”.
As for `OC(CCN1CCCCC1)(c1ccccc1)C1CCCCC1` (stereo unspecified) [TRIHEXYPHENIDYL], the IC50 entry was “Not Active”.
On to `Cc1cc2cc3c(C)cc(=O)oc3c(C)c2o1` [TRIOXSALEN], for which the IC50 result is reported as “Not Active”.
Still for that read-out and setting: then `CCCC(CCC)C(=O)O` [VALPROIC ACID], with “Not Active”.

For a further data set, the target named is Cytochrome P450 3A4 (Homo sapiens, UniProt P08684). Particulars: bti-tn-5b1-4. Further: in other assays of this panel Not Active means under 50% inhibition at 10 µM.
Cytochrome P450 3A4, sequence (P08684 whole entry): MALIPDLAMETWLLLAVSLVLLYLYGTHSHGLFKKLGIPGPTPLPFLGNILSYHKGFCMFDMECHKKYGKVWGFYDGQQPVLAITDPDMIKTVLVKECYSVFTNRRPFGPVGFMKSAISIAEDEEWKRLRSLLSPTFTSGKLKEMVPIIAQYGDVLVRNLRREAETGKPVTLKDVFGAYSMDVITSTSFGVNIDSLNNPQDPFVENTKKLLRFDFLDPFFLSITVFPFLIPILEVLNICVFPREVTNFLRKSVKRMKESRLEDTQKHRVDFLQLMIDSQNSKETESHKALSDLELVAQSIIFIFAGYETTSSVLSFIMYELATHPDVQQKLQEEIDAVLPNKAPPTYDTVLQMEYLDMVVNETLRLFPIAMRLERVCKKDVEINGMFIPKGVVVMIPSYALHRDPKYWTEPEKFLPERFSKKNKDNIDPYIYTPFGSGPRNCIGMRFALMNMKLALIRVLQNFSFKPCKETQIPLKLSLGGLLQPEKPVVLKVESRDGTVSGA
Regarding `Cc1nccn1CC1CCc2c(c3ccccc3n2C)C1=O` (stereo unspecified) [ONDANSETRON], the IC50 result is recorded as “Not Active” and the Ki entry is recorded as “Not Active”.
As for `CCCCOc1ccc(OCCCN2CCOCC2)cc1` [PRAMOXINE], the IC50 result was “Not Active” and the Ki result is “Not Active”.
`CCN(CC)CCOC(=O)c1ccc(N)cc1` [PROCAINE]: the IC50 result is listed as “Not Active” and the Ki result is “Not Active”.
As to `CCCN(CCC)C(=O)C(CCC(=O)O)NC(=O)c1ccccc1` (stereo unspecified) [PROGLUMIDE], the IC50 result is given as “Not Active” and the Ki result was “Not Active”.
Consider `NC(=O)c1cnccn1` [PYRAZINAMIDE], for which the IC50 entry is recorded as “Not Active” and the Ki result is “Not Active”.
Consider `OC(CCN1CCCCC1)(c1ccccc1)C1CCCCC1` (stereo unspecified) [TRIHEXYPHENIDYL], for which the IC50 result was “Not Active” and the Ki entry is on record as “Not Active”.
In the case of `Cc1cc2cc3c(C)cc(=O)oc3c(C)c2o1` [TRIOXSALEN], the concentration for half-maximal inhibition (IC50) result is on record as “Not Active” and the Ki result is “Not Active”.
Turning to `CCCC(CCC)C(=O)O` [VALPROIC ACID], the IC50 result is listed as “Not Active” and the Ki result was “Not Active”.
